As a reminder, the IC50 is the concentration needed to halve the response being measured.

In one test the target is T1, P-selectin (Homo sapiens, UniProt P16109).
T1 sequence (P16109 whole entry): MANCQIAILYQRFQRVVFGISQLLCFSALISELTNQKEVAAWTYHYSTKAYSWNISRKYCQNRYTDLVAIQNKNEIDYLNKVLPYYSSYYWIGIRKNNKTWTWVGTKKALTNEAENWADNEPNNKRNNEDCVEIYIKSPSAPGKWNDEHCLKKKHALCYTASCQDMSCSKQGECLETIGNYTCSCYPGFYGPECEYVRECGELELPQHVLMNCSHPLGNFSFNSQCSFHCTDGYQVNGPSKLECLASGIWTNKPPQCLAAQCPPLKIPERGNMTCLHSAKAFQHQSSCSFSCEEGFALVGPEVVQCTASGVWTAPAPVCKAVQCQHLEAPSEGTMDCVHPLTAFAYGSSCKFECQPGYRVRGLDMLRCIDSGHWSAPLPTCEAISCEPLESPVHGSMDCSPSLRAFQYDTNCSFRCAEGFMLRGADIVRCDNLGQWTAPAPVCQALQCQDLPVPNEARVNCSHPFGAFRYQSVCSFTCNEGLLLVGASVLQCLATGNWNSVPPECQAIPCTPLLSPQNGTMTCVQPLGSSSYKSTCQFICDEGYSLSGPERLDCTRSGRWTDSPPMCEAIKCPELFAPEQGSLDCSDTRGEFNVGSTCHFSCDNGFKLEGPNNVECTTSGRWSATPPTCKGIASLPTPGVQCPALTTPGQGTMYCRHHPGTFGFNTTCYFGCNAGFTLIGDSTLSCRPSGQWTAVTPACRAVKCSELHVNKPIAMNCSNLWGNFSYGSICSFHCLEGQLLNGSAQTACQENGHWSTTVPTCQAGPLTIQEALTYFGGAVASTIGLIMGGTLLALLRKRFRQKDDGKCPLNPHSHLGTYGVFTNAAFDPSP
The test is described as follows: Concentration required to inhibit the interaction of Selectin P and HL-60 cells. Type of test: cell-based.

A further test has as its target T2, E-selectin (Homo sapiens, UniProt P16581).
T2 sequence (P16581 whole entry): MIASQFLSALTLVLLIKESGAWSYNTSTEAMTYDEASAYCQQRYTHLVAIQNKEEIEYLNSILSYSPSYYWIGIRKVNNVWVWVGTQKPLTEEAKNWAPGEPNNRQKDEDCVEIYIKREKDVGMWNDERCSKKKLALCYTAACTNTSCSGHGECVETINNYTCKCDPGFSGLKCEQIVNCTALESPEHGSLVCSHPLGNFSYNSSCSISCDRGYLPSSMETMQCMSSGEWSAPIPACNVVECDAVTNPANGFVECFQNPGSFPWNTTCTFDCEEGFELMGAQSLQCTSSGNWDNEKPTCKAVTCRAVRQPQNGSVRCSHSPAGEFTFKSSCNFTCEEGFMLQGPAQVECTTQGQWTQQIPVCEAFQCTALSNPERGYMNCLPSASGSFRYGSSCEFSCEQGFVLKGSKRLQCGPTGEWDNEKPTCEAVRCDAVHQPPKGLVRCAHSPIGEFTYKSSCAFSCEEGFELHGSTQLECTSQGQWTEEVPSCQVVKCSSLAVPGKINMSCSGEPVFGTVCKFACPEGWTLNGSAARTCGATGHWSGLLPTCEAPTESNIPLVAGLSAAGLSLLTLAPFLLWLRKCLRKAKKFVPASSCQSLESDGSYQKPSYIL
The test is described as follows: Concentration required to inhibit the interaction of Selectin E and HL-60 cells. Type of test: cell-based.

Take `CC(=O)N[C@H]1[C@H]([C@H](O)[C@H](O)CO)O[C@@](O[C@H]2[C@@H](O)[C@@H](CO)O[C@@H](O[C@@H]([C@H](O[C@@H]3O[C@@H](C)[C@@H](O)[C@@H](O)[C@@H]3O)[C@H](C=O)NC(C)=O)[C@H](O)CO)[C@@H]2O)(C(=O)O)C[C@@H]1O` (single isomer, unassigned; enantiomer A) [SIALYL LEWIS X]: the IC50 amounted to 5 mM at P-selectin and 7 mM on E-selectin.
As for `CC(=O)N[C@H]1[C@H]([C@H](O)[C@H](O)CO)O[C@@](O[C@H]2[C@@H](O)[C@@H](CO)O[C@@H](O[C@@H]([C@H](O[C@@H]3O[C@@H](C)[C@@H](O)[C@@H](O)[C@@H]3O)[C@H](C=O)NC(C)=O)[C@H](O)CO)[C@@H]2O)(C(=O)O)C[C@@H]1O` [SIALYL LEWIS X], the IC50 came out at 5.5 mM on P-selectin and 5 mM at E-selectin.
Turning to `CC(=O)N[C@H]1[C@H]([C@H](O)[C@H](O)CO)O[C@@](O[C@H]2[C@@H](O)[C@@H](CO)O[C@@H](O[C@@H]([C@H](O[C@@H]3O[C@@H](C)[C@@H](O)[C@@H](O)[C@@H]3O)[C@H](C=O)NC(C)=O)[C@H](O)CO)[C@@H]2O)(C(=O)O)C[C@@H]1O` (single isomer, unassigned; enantiomer B) [SIALYL LEWIS X], the IC50 at P-selectin stood at 4.5 mM; against E-selectin it was 5 mM.
